kcat data for 1 molecule are collected here from publication PMC5065787 (Bioorganic & medicinal chemistry, 2016).

Holding throughout (type): biochemical
Conditions in all cases: error in parentheses, no unit in table (sec^−1)

The target of one assay is T1, h15-LOX-1 L407A (Homo sapiens, UniProt P16050, L407A).
T1 sequence (P16050 1-662 L407A): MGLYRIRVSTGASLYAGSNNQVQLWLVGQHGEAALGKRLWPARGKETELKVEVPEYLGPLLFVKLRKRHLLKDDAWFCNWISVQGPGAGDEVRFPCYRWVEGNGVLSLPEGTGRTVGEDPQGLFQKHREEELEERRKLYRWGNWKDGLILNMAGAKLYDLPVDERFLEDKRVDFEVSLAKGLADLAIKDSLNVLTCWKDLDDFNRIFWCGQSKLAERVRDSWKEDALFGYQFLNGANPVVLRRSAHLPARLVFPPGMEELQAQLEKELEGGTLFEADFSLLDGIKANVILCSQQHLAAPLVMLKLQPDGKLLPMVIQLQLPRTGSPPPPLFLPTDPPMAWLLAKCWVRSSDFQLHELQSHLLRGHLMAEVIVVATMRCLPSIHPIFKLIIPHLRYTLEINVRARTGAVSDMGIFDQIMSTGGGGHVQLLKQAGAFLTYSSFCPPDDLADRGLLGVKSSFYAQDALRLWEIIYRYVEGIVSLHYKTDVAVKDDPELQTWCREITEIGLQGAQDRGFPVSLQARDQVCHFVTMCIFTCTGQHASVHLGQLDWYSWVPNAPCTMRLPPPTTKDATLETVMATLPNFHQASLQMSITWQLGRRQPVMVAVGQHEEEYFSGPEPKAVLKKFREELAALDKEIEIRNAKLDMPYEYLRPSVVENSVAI
The experiment in a line: Steady-state substrate kinetics, L407A.

The target in a further assay is T2, WT h15-LOX-1 (Homo sapiens, UniProt P16050).
T2 sequence (P16050 1-662): T1 sequence (P16050 1-662 L407A) with A407L
The experiment in a line: Steady-state substrate kinetics, WT.

The next assay concerns the target T3, h15-LOX-1 F414I (Homo sapiens, UniProt P16050, F414I).
T3 sequence (P16050 1-662 F414I): T1 sequence (P16050 1-662 L407A) with A407L, F414I
The experiment in a line: Steady-state substrate kinetics, F414I.

For a further assay, the target named is T4, h15-LOX-1 F414W (Homo sapiens, UniProt P16050, F414W).
T4 sequence (P16050 1-662 F414W): T1 sequence (P16050 1-662 L407A) with A407L, F414W
The experiment in a line: Steady-state substrate kinetics, F414W.

SMILES strings stand for the structures. Where a chain is given by its changes, count along the chain named.

Regarding `CCCCC/C=C\C/C=C\C/C=C\C/C=C\CCCC(=O)O` [AA, arachidonic acid], the kcat on h15-LOX-1 L407A was 2.5 (0.2); at WT h15-LOX-1 it was 11 (0.5); at h15-LOX-1 F414I, 1.8 (0.05); on h15-LOX-1 F414W, 2.8 (0.08).
